The source of these data is PMC6779874, “ACT001, a novel PAI-1 inhibitor, exerts synergistic effects in combination with cisplatin by inhibiting PI3K/AKT pathway in glioma” (Cell Death & Disease, 2019).

The target in assay [1] is T1, PAI-1 (plasminogen activator inhibitor-1) (Homo sapiens, UniProt P05121).
T1 construct: gene SERPINE1; Recombinant human PAI-1
Kind of assay: SPR (Biacore […], immobilized PAI-1); also CETSA in cell extract; prodrug that releases MCL. It counts as binding. Background: In SPR one partner is held on a chip, and binding of the other changes the refractive index at the surface.

Assay [2] deals with T1, PAI-1 (plasminogen activator inhibitor-1). Briefly: SPR (Biacore […], immobilized PAI-1); also CETSA/ITDR in cell extract. In kind it is binding.

SMILES strings stand for the structures.

T1 sequence (P05121 24-402): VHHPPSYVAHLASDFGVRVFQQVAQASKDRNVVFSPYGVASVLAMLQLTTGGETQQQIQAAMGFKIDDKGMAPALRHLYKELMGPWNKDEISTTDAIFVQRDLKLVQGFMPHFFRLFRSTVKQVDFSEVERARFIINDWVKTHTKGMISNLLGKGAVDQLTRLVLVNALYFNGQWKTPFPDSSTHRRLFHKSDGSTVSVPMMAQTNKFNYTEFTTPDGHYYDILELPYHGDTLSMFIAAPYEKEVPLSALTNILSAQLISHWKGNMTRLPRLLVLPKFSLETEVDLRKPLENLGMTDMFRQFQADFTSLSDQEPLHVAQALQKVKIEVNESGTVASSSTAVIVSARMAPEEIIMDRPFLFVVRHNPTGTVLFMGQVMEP

The term Kd denotes a measure of binding affinity in units of concentration. `CC1=C2CC[C@@](C)(O)[C@@H]2[C@H]2OC(=O)[C@@H](CN(C)C)[C@@H]2CC1` [ACT001]: the Kd in assay [1] is 2310 µM.

In assay [2], `C=C1C(=O)O[C@H]2[C@H]1CCC(C)=C1CC[C@@](C)(O)[C@@H]12` [MCL] had a Kd of 10.8 µM.
